From US10179761B2, “Compounds, pharmaceutical composition and their use in treating neurodegenerative diseases” (UNIVERSITE DE LILLE 2 DROIT ET SANTE, priority 2014, dated 2019)
pKi: −log10 of the molar value. “Also recorded” adds a separate entry of the source.

Experiments:
σ2 receptors = σ2 receptors (Homo sapiens (Human), UniProt Q5BJF2); assay: σ2 binding assay, Jurkat cell membranes, [3H]-DTG in presence of (+)-pentazocine; conditions: hydrochloride salts; mean of 2 or 3 independent experiments; Ki from IC50 (Cheng-Prusoff); read-out: Sigma 2 Ki
Method: The σ binding assays were performed according to Ganapathy et al. (Ganapathy, M. E.; Prasad, P. D.; Huang, W.; Seth, P.; Leibach, F. H.; Ganapathy, V. Molecular and ligand-binding characterization of the sigma-receptor in the Jurkat human T lymphocyte cell line. J. Pharmacol. Exp. Ther. 1999, 289, 251-260). […] The σ2 binding assay was performed by incubating Jurkat cell membranes ([…] protein per tube) with [^3H]-DTG (25 nM) in presence of (+)-pentazocine (1 μM) to saturate σ1 receptors, and a range of concentrations of tested compounds, at room temperature for 1 hour in 5 mM Tris/HCl buffer (pH=7.4). The final assay volume was 0.5 mL. Binding was terminated by rapid filtration through Wathman GF/B filters, which were then washed with 5×1 mL ice-cold NaCl solution and allowed to dry before bound radioactivity was measured using liquid scintillation counting. Nonspecific binding was determined, in both assays, under similar conditions, but in presence of 10 μM unlabeled haloperidol. Inhibition constants (Ki) were calculated from the IC50 values according to the method of Cheng and Prusoff (Cheng, Y.; Prusoff, W. H. Relationship between the inhibition constant (Ki) and the concentration of inhibitor which causes 50 percent inhibition (IC50) of an enzymatic reaction. Biochem Pharmacol. 1973, 22 (23), 3099-108): […]

Male Swiss mice = assay: Dizocilpine-induced learning deficits: step-through passive avoidance test; type: in vivo
Method: The activity of compound 3.1.10 was evaluated on the prevention of the dizocilpine-induced learning deficits measured using two behavioral tests. The present experiment tested if its anti-amnesic activity could be blocked by pretreatment with the reference sigma-1 receptor antagonist NE-100.
• Sixty (60) mice were used. Behavioral testing started one week after the arrival of the animals in the AMYLGEN animal facility. • 5 treatment groups were designed and used as follows:
• Vehicle 1 was physiological saline for dizocilpine, DMSO 2% in water for compound 3.1.10 • Animals were used at day 1 in the Y-maze test and at days 2 and 3 in the passive avoidance test, with training at day 2 and retention at day 3. • Test compounds, compound 3.1.10 and/or NE-100 were administered 10 min before dizocilpine (at 0.15 mg/kg i.p.) or vehicle. • Dizocilpine or vehicle 1 was administered 20 min before the Y-maze test session on day 1. • Dizocilpine or vehicle 1 was administered 20 min before the passive avoidance training session on day 2. Drugs were not injected before the retention session on day 3. • The whole experiment program was performed in a single serie experiment. • Treatments were randomized. 2.1.2. Animals
Male Swiss mice, 6 weeks old and weighing 30-35 g, from JANVIER (Saint Berthevin, France), were housed in groups with access to food and water ad libitum, except during experiments. […]
The apparatus is a two-compartments (15×20×15 cm high) box with one illuminated with white polyvinylchloride walls and the other darkened with black polyvinylchloride walls and a grid floor. […] The step-through latency (the latency spent to enter the dark compartment) and the number of vocalizations was recorded. […] The step-through latency was recorded up to 300 s. When the mouse entered the dark compartment or 300 s has elapsed (they were therefore manually placed in it), the escape latency (latency to exit from the dark compartment) was recorded up to 300 s.
They were therefore analyzed using a Kruskal-Wallis non-parametric ANOVA (H value), followed by a Dunn's multiple comparison test.

SJL/J mice = assay: EAE model, preventive treatment; type: in vivo; conditions: single i.p. injection on day 0, 0.5 or 1 mg/kg; FIG. 3
From the text: Animals. SJL/J mice were purchased from Janvier (Le Genest-St-Isle, France) and bred under conventional barrier protection at the Pasteur Institute (Lille, France). All experiment protocols and procedures were in compliance with the European Communities Council Directives of 24 Nov. 1986 (86/609/EEC) and were approved by the local ethical committee (CEEA 102009R). Efforts were made to minimize the number of animals used and their suffering. Animals that reached severe hind limb paresis (clinical grade 3) were isolated, and hydration and food access were facilitated.
EAE induction and treatment. The method of EAE induction was similar to previously published methods (Lee-Chang et al., Immunol Lett. 2011 Mar. 30; 135(1-2):108-17). […]
Body weight and clinical signs of EAE were monitored daily. The severity of clinical symptoms was scored based on a standard neurological scoring system for EAE, as follows: grade 0, no disease; grade 1, moderate tail hypotonia and/or slight clumsy gait; grade 2, tail atony and/or clumsy gait; grade 3, severe hind limb paresis; grade 4, paraplegia; grade 5, tetraplegia. […]

σ2 receptors, sequence (Q5BJF2 whole entry): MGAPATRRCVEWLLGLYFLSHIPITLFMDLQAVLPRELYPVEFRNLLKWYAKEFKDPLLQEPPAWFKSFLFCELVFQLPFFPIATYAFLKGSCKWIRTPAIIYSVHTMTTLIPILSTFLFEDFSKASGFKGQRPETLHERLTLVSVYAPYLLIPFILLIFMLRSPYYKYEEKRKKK

CN(CCCNC(=O)c1ccc(Cl)cc1)Cc1ccccc1 [Compound 3.1.10, N-[3-(benzylmethylamino)propyl]-4-chlorobenzamide]
pKi (σ2 receptors): 6.72
dizocilpine-induced learning deficits, passive avoidance test (Male Swiss mice; 0.5 mg/kg i.p., 10 min before dizocilpine 0.15 mg/kg i.p.): significantly attenuated
beneficial effect of compound 3.1.10 with NE-100, passive avoidance test (Male Swiss mice; 3.1.10 0.5 mg/kg + NE-100 3 mg/kg + dizocilpine 0.15 mg/kg i.p.): prevented by treatment with the sigma-1 antagonist NE-100
EAE clinical course, preventive treatment (SJL/J mice): Amelioration of EAE; also recorded: delaying the onset of EAE
